The source made the active and inactive calls. The rule behind the calls is not given here.

In assay [1] the test system is SH-SY5Y. Put plainly: Cytotoxicity against human SH-SY5Y cells at 1 uM incubated for 72 hrs by MTT assay relative to control. The class given is functional.
Assay [2] concerns the target T1, Tubulin (Homo sapiens) (UniProt P68371+Q9H4B7+P0DPH7+P68366+Q13509+Q71U36+P04350+Q3ZCM7+P07437+P68363+Q9BQE3+Q6PEY2+Q13885+Q9BVA1+Q9BUF5). The assay is described as follows: Inhibition of tubulin polymerization in human SH-SY5Y cells assessed as decrease in depolymerized tubulin to polymerized tubulin ratio at 100 nM measured after 16 hrs by Western blot analysis. It counts as cell-based.

In assay [3] the test system is SH-SY5Y. Put plainly: Upregulation of tubulin acetylation in human SH-SY5Y cells at 100 to 1000 nM measured after 16 hrs by Western blot analysis. The class given is functional, cell-based. As to conditions: dose 100-1000 nM.
Assay [4] concerns the target T1, Tubulin (Homo sapiens). The assay is described as follows: Inhibition of tubulin polymerization (unknown origin) at 1 to 30 uM measured every 60 secs for 1 hr by fluorescence based analysis. The class given is protein-complex assay. To be noted: dose 1-30 µM, time 60.0 sec.
For assay [5], the system named is SH-SY5Y. Put plainly: Induction of cell cycle arrest in human SH-SY5Y cells assessed as accumulation of cells at G2/M phase at 1 uM measured after 16 hrs by PI staining based flow cytometry analysis. The class given is functional.
The target of assay [6] is T1, Tubulin (Homo sapiens). Put plainly: Inhibition of tubulin polymerization in human SH-SY5Y cells assessed as disappearance of tubulin network structure at 3 times EC50 measured after 16 hrs by immunofluorescence assay. It counts as cell-based.
In assay [7] the test system is SH-SY5Y. The assay is described as follows: Cytotoxicity against human SH-SY5Y cells incubated for 48 hrs by MTT assay. It counts as functional, cell-based.
The test system of assay [8] is SH-SY5Y. The assay is described as follows: Upregulation of tubulin acetylation in human SH-SY5Y cells at 300 nM by immunofluorescence assay. The class given is functional, cell-based.
For assay [9], the target named is T1, Tubulin (Homo sapiens). Put plainly: Inhibition of tubulin polymerization in human SH-SY5Y cells assessed as decrease in depolymerized tubulin to polymerized tubulin ratio at 1 uM measured after 16 hrs by Western blot analysis. The class given is cell-based.
In assay [10] the test system is SH-SY5Y. Put plainly: Upregulation of tubulin acetylation in human SH-SY5Y cells at 1 uM measured after 16 hrs by Western blot analysis. It counts as functional, cell-based.
The test system of assay [11] is MDA-MB-231. Put plainly: Cytotoxicity against human MDA-MB-231 cells incubated for 48 hrs by MTT assay. The class given is functional, cell-based.
Assay [12] deals with SH-SY5Y. The assay is described as follows: Upregulation of tubulin acetylation in human SH-SY5Y cells at 200 nM by immunofluorescence assay. It counts as functional, cell-based.
In assay [13] the test system is HeLa. The assay is described as follows: Cytotoxicity against human HeLa cells incubated for 48 hrs by MTT assay. The class given is functional, cell-based.
Assay [14] concerns MCF7. Put plainly: Cytotoxicity against human MCF7 cells incubated for 48 hrs by MTT assay. The class given is functional, cell-based.
The target in assay [15] is T1, Tubulin (Homo sapiens). Put plainly: Inhibition of tubulin polymerization (unknown origin) measured every 60 secs for 1 hr by fluorescence based analysis. To be noted: dose 1-10 µM. The class given is protein-complex assay.
In assay [16] the test system is SH-SY5Y. The assay is described as follows: Upregulation of tubulin acetylation in human SH-SY5Y cells at 70 to 350 nM measured after 16 hrs by Western blot analysis. It counts as functional, cell-based. As to conditions: dose 70-350 nM.

For the compound `CN(/C=C1\C(=O)N[C@@H](Cc2ccccc2)C1=O)c1ccccc1`, the Activity in [1] is on record as 112.4%.
`O=C1N[C@@H](Cc2ccccc2)C(=O)/C1=C/Nc1ccccc1` returned an Activity in [1] of 70.3%.
`CC(=O)O[C@H]1C(=O)[C@@]2(C)[C@H]([C@H](OC(=O)c3ccccc3)[C@]3(O)C[C@H](OC(=O)[C@H](O)[C@@H](NC(=O)c4ccccc4)c4ccccc4)C(C)=C1C3(C)C)[C@]1(OC(C)=O)CO[C@@H]1C[C@@H]2O`: the inhibition entry in assay [2] was “Active”.
On to `C/C(Nc1ccccc1)=C1/C(=O)NN(Cc2ccccc2)C1=O`, for which the Activity in assay [1] came to 36.2%.
`C#CCOc1cccc(N/C(C)=C2\C(=O)NN(Cc3ccccc3)C2=O)c1`: the outcome in [3], in assay [5] and in assay [8] was Active. For the same compound, in assay [4], the inhibition result was “Active”. Further, the inhibition result in assay [6] and in [9] was “inactive” throughout. In assay [7], this compound showed an EC50 of 0.102 µM.
`C#CCCOc1cccc(N/C(C)=C2\C(=O)NN(Cc3ccccc3)C2=O)c1` gave an EC50 in [7] of 0.79 µM. Also, the result in assay [10] was Active.
Regarding `C/C(Nc1ccccc1)=C1/C(=O)N[C@@H](Cc2ccccc2)C1=O`, the outcome in [5], in [12], in assay [13] and in assay [16] was Active. Moreover, the inhibition entry in [6] and in [9] was “inactive” throughout. The outcome in assay [11], in [14] and in assay [10] was inactive. In [7], the midpoint of the response, the EC50, lay at 0.068 µM. Besides, the Activity in assay [1] came to 34.7%. In assay [15], the inhibition result is “Dose-Dependent Effect”.
`C/C(Cc1ccccc1)=C1/C(=O)N[C@@H](Cc2ccccc2)C1=O`: the Activity in assay [1] turned out to be 100.7%.
Turning to `COc1ccc(/C=C\c2cc(OC)c(OC)c(OC)c2)cc1O`, the outcome in assay [11] and in assay [14] was inactive.
In the case of `C/C(Nc1cccc(Oc2ccccc2)c1)=C1/C(=O)NN(Cc2ccccc2)C1=O`, the result in assay [5] and in assay [10] was Active. A half-maximal response in [7] (EC50) required 0.895 µM.

Values taken from ChEMBL document CHEMBL5385850, “Identification of novel aza-analogs of TN-16 as disrupters of microtubule dynamics through a multicomponent reaction” (Eur J Med Chem, 2023).
